From patent publication US20090087889A1, “Methods and compositions for growth hydrocarbons in botryococcus sp” (priority 2005, published 2009)

System: Botryococcus sp. colonies
Test: Flotation (buoyancy) of bottom-dwelling colonies as visual assay of hydrocarbon content
Assay type: cell-based
Description: Previous investigations (Ohmori, et al. 1984; and Wolf, et al, 1985) verified that colonies containing greater than 20% of dry weight as botryococcenoid hydrocarbons were buoyant and that colonies containing less than 5% hydrocarbons remained sunken at the bottom of the culture vessel, providing a visual method for selecting cells with commercial-grade hydrocarbons. […] Colonies in hydrocarbon-enhancement were placed […] without supplemental carbon dioxide gas to eliminate artifacts of flotation from bubbles. Environmental conditions were 150 μE/m^2/sec PAR to 1700 μE/m^2/sec PAR at 25-37° Centigrade. Nutrient chemicals were reagent grade in all laboratory-scale experiments. In field-scale tests, fertilizer grade chemical nutrients were provided. In order to minimize or eliminate ammonia, nitrates were optionally kiln dried prior to admixture. Supplementation with 0.1% to 100% carbon dioxide gas or carbonate (e.g., 10 mg/ml sodium bicarbonate or potassium bicarbonate) increased hydrocarbon synthesis substantially, especially, when under the highest light intensities with soluble elements of the present invention.
Stock cultures were taken from bottom-dwelling colonies that had been maintained in conventional liquid culture media, typified by approximately 1 ppm to 10 ppm phosphate, 0.01 ppm to 0.3 ppm iron, and 0.01 ppm to 0.5 ppm zinc, as for example, in Showa medium and other phycological media. Aqueous nutrient solutions were placed in sterile culture tubes and flasks and steam sterilized twice for 60 minutes. Following inoculation and growth, colonies were concentrated with overnight settling and approximately one million submerged green colonies were collected from the bottom of culture vessels. Equal volumes were resuspended into replicate culture vessels with equal volumes of enhancement media in the highest light intensities available in preparation for experiments. Control cultures were transferred into equal volumes of Showa medium and placed side by side under identical conditions as controls.

Molecule: phosphates
- colour of colonies after long exposure (200 mM to 300 mM phosphates, approximately two to eight weeks): color change of the colonies toward amber
- state of colonies after long exposure (after two weeks or more in 300 mM phosphate): remained floating, but cleared to amber
- time until bottom-dwelling colonies began to rise to the surface (in water with up to 300 mM phosphates): ≤ 5 h
- total phosphate concentration that stimulated the rise of colonies to the surface (subtractive matrix analysis, most rapid in presence of soluble Mg, Mn, Fe and Zn^+2): greater than 80 mM

Molecule: [Zn+2] [Zn^+2]
- colour of colonies after long exposure (100 ppm Zn^+2, approximately two to eight weeks): color change of the colonies toward amber
